{"source": "ChEMBL document CHEMBL5335856", "about": "“Structurally Diverse Alkaloids with Anti-Renal-Fibrosis Activity from the Centipede Scolopendra subspinipes mutilans” (J Nat Prod, 2024)", "key": {"[1]": {"system": "RAW264.7", "experiment": "Antiinflammatory activity against LPS-induced mouse RAW264.7 cells assessed as reduction in iNOS protein level at 20 uM", "assay_type": "functional, cell-based"}, "[2]": {"system": "NRK-52E", "experiment": "Anti-renal-fibrosis activity in TGF-beta1 induced rat NRK-52E cells assessed as downregulation of collagen I protein level at 20 uM by Western blot analysis", "assay_type": "functional, cell-based"}, "[3]": {"system": "NRK-52E", "experiment": "Anti-renal-fibrosis activity in TGF-beta1 induced rat NRK-52E cells assessed as downregulation of fibronectin protein level by Western blot analysis", "assay_type": "functional, cell-based", "settings": "dose 5-40 µM"}, "[4]": {"system": "NRK-52E", "experiment": "Anti-renal-fibrosis activity in TGF-beta1 induced Lamp2 knocked down rat NRK-52E cells assessed as downregulation of alpha-SMA expression at 40 uM", "assay_type": "functional, cell-based"}, "[5]": {"system": "NRK-52E", "experiment": "Anti-renal-fibrosis activity in TGF-beta1 induced rat NRK-52E cells assessed as downregulation of collagen I expression at 40 uM", "assay_type": "functional, cell-based"}, "[6]": {"system": "NRK-52E", "experiment": "Anti-renal-fibrosis activity in TGF-beta1 induced rat NRK-52E cells assessed as downregulation of alpha-SMA expression at 40 uM", "assay_type": "functional, cell-based"}, "[7]": {"biological_target": "SWI/SNF-related matrix-associated actin-dependent regulator of chromatin subfamily D member 2 (Homo sapiens) (UniProt Q92925)", "sequence (Q92925 whole entry)": "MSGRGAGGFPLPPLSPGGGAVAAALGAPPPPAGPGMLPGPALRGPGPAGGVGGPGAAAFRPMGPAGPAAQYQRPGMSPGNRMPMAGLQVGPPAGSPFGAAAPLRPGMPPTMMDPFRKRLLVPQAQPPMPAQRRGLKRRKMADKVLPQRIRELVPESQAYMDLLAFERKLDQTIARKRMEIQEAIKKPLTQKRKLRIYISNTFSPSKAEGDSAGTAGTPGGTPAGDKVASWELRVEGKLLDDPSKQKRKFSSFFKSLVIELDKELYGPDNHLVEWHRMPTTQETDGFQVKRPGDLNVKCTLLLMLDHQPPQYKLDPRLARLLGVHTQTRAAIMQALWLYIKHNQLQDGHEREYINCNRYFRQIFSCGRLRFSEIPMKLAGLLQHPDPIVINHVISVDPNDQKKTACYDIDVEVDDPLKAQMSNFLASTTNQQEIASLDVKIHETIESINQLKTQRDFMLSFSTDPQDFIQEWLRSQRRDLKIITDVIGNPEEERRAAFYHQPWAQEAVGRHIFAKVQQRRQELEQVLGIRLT", "experiment": "Binding affinity to Smarcd2 (unknown origin) at 200 uM preincubated for 2 hrs followed by pronase addition and measured after 30 mins by coomassie blue staining based SDS-PAGE gel analysis"}, "[8]": {"biological_target": "Serine/threonine-protein kinase TAO3 (Homo sapiens) (UniProt Q9H2K8)", "sequence (Q9H2K8 whole entry)": "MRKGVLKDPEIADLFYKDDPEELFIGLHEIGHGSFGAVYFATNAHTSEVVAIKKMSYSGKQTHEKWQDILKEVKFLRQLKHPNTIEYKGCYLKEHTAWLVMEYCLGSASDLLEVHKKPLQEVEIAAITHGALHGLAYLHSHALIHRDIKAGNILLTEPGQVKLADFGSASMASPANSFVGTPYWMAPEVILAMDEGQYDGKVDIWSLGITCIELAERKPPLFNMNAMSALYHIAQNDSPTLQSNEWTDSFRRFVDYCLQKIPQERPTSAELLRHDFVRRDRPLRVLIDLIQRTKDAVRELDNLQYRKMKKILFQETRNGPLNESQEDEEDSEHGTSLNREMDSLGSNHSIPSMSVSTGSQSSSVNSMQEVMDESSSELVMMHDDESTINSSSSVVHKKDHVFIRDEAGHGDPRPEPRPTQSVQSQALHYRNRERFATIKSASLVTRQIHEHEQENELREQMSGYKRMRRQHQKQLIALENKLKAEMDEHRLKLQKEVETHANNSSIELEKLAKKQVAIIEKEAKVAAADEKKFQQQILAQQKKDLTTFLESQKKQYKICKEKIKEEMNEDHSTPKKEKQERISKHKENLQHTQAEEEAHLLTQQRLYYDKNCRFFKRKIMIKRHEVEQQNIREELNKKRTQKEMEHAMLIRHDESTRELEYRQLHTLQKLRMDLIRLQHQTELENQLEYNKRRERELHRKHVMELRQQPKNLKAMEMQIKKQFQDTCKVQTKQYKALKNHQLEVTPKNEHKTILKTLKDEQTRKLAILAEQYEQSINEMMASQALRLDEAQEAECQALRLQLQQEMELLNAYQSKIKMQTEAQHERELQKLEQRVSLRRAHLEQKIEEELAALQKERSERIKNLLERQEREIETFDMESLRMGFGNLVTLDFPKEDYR", "experiment": "Binding affinity to Taok3 (unknown origin) at 200 uM preincubated for 2 hrs followed by pronase addition and measured after 30 mins by coomassie blue staining based SDS-PAGE gel analysis"}, "[9]": {"biological_target": "Na(+)/H(+) exchange regulatory cofactor NHE-RF1 (Homo sapiens) (UniProt O14745)", "experiment": "Binding affinity to Slc9a3r1 (unknown origin) assessed as fold change in protein upregulation at 200 uM preincubated for 2 hrs followed by pronase addition and measured after 30 mins by coomassie blue staining based SDS-PAGE gel analysis"}, "[10]": {"biological_target": "Serine/threonine-protein kinase DCLK1 (Homo sapiens) (UniProt O15075)", "experiment": "Binding affinity to Dclk1 (unknown origin) assessed as fold change in protein upregulation at 200 uM preincubated for 2 hrs followed by pronase addition and measured after 30 mins by coomassie blue staining based SDS-PAGE gel analysis"}, "[11]": {"biological_target": "Splicing factor 3A subunit 3 (Homo sapiens) (UniProt Q12874)", "sequence (Q12874 whole entry)": "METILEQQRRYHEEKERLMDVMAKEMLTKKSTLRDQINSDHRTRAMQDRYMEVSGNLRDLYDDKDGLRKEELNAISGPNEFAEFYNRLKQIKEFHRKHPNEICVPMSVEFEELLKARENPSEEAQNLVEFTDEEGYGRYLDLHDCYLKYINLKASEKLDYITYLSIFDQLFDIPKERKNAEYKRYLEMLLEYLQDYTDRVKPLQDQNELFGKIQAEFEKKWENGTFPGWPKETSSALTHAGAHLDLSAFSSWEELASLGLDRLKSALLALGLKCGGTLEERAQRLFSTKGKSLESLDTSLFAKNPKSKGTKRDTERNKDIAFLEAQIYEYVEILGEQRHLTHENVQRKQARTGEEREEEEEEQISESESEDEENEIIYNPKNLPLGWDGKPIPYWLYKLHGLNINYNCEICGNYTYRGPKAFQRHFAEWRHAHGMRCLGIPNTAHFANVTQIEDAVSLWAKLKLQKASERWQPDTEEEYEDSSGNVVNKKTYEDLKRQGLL", "experiment": "Binding affinity to Sf3a3 (unknown origin) assessed as fold change in protein upregulation at 200 uM preincubated for 2 hrs followed by pronase addition and measured after 30 mins by coomassie blue staining based SDS-PAGE gel analysis"}, "[12]": {"biological_target": "Protein YIF1B (Homo sapiens) (UniProt Q5BJH7)", "experiment": "Binding affinity to Yif1b (unknown origin) assessed as fold change in protein upregulation at 200 uM preincubated for 2 hrs followed by pronase addition and measured after 30 mins by coomassie blue staining based SDS-PAGE gel analysis"}, "[13]": {"biological_target": "Sorting nexin-3 (Homo sapiens) (UniProt O60493)", "experiment": "Binding affinity to Snx3 (unknown origin) assessed as fold change in protein upregulation at 200 uM preincubated for 2 hrs followed by pronase addition and measured after 30 mins by coomassie blue staining based SDS-PAGE gel analysis"}, "[14]": {"biological_target": "Tyrosine-protein phosphatase non-receptor type 2 (Homo sapiens) (UniProt P17706)", "experiment": "Binding affinity to Ptpn2 (unknown origin) assessed as fold change in protein upregulation at 200 uM preincubated for 2 hrs followed by pronase addition and measured after 30 mins by coomassie blue staining based SDS-PAGE gel analysis"}, "[15]": {"biological_target": "Septin-5 (Homo sapiens) (UniProt Q99719)", "experiment": "Binding affinity to Septin5 (unknown origin) assessed as fold change in protein upregulation at 200 uM preincubated for 2 hrs followed by pronase addition and measured after 30 mins by coomassie blue staining based SDS-PAGE gel analysis"}, "[16]": {"biological_target": "Protein FAM91A1 (Homo sapiens) (UniProt Q658Y4)", "experiment": "Binding affinity to Fam91a1 (unknown origin) assessed as fold change in protein upregulation at 200 uM preincubated for 2 hrs followed by pronase addition and measured after 30 mins by coomassie blue staining based SDS-PAGE gel analysis"}, "[17]": {"biological_target": "Prelamin-A/C (Homo sapiens) (UniProt P02545)", "sequence (P02545 whole entry)": "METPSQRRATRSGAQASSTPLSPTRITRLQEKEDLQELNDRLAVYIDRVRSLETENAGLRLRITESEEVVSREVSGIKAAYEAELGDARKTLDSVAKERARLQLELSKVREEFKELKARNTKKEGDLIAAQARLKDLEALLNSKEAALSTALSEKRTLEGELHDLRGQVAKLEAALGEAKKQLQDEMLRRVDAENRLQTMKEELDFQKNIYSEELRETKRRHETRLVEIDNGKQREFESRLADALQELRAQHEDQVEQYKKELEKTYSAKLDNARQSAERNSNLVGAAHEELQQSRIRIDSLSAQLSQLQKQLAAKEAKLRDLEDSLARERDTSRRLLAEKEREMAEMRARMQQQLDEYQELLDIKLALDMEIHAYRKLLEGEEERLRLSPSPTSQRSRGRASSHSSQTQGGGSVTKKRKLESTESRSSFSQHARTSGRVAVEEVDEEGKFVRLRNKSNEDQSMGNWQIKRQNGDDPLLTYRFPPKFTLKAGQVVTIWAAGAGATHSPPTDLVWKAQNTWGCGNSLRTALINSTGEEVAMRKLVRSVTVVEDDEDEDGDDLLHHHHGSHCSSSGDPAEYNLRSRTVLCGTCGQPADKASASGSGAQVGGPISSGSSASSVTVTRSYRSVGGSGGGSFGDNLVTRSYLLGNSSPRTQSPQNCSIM", "experiment": "Binding affinity to LMNA (unknown origin) assessed as fold change in protein upregulation at 200 uM preincubated for 2 hrs followed by pronase addition and measured after 30 mins by coomassie blue staining based SDS-PAGE gel analysis"}, "[18]": {"biological_target": "10 kDa heat shock protein, mitochondrial (Homo sapiens) (UniProt P61604)", "sequence (P61604 whole entry)": "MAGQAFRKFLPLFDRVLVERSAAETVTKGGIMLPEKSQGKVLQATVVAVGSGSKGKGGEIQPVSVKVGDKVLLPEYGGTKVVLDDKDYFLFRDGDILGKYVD", "experiment": "Binding affinity to Hspe1 (unknown origin) assessed as fold change in protein upregulation at 200 uM preincubated for 2 hrs followed by pronase addition and measured after 30 mins by coomassie blue staining based SDS-PAGE gel analysis"}, "[19]": {"biological_target": "Testin (Homo sapiens) (UniProt Q9UGI8)", "experiment": "Binding affinity to Tes (unknown origin) assessed as fold change in protein upregulation at 200 uM preincubated for 2 hrs followed by pronase addition and measured after 30 mins by coomassie blue staining based SDS-PAGE gel analysis"}, "[20]": {"biological_target": "Far upstream element-binding protein 1 (Homo sapiens) (UniProt Q96AE4)", "experiment": "Binding affinity to Fubp1 (unknown origin) assessed as fold change in protein upregulation at 200 uM preincubated for 2 hrs followed by pronase addition and measured after 30 mins by coomassie blue staining based SDS-PAGE gel analysis"}, "[21]": {"biological_target": "Protein farnesyltransferase/geranylgeranyltransferase type-1 subunit alpha (Homo sapiens) (UniProt P49354)", "experiment": "Binding affinity to FNTA (unknown origin) assessed as fold change in protein upregulation at 200 uM preincubated for 2 hrs followed by pronase addition and measured after 30 mins by coomassie blue staining based SDS-PAGE gel analysis"}, "[22]": {"biological_target": "Lamin-B2 (Homo sapiens) (UniProt Q03252)", "experiment": "Binding affinity to Lmnb2 (unknown origin) assessed as fold change in protein upregulation at 200 uM preincubated for 2 hrs followed by pronase addition and measured after 30 mins by coomassie blue staining based SDS-PAGE gel analysis"}, "[23]": {"biological_target": "FACT complex subunit SPT16 (Homo sapiens) (UniProt Q9Y5B9)", "sequence (Q9Y5B9 whole entry, one chain of several)": "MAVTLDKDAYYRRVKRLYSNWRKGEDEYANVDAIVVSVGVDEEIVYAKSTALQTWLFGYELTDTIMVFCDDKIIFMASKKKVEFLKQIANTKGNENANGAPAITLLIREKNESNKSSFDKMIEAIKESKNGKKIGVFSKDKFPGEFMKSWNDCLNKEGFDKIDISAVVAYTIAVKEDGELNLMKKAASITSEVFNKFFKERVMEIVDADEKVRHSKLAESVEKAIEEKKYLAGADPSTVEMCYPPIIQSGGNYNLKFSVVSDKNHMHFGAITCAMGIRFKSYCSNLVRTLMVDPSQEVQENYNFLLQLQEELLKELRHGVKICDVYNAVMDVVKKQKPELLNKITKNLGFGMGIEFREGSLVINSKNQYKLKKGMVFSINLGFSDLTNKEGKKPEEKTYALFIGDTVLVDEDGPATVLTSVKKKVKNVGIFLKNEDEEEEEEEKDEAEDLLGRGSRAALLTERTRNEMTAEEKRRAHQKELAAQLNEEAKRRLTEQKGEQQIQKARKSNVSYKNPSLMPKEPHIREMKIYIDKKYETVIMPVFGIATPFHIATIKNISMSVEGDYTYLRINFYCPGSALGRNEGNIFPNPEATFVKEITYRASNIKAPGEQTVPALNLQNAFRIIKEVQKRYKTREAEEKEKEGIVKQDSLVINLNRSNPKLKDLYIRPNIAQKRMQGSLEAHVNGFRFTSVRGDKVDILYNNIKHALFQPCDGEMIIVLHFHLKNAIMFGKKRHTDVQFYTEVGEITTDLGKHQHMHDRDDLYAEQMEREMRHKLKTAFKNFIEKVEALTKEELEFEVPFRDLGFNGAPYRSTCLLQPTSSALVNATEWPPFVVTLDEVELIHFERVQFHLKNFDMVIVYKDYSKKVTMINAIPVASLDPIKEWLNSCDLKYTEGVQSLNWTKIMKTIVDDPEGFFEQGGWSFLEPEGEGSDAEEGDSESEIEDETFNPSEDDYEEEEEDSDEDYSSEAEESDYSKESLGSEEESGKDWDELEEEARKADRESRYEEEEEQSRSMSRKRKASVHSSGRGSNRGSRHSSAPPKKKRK", "experiment": "Binding affinity to Supt16h (unknown origin) assessed as fold change in protein upregulation at 200 uM preincubated for 2 hrs followed by pronase addition and measured after 30 mins by coomassie blue staining based SDS-PAGE gel analysis"}, "[24]": {"biological_target": "Protein O-mannosyl-transferase TMTC3 (Homo sapiens) (UniProt Q6ZXV5)", "sequence (Q6ZXV5 whole entry)": "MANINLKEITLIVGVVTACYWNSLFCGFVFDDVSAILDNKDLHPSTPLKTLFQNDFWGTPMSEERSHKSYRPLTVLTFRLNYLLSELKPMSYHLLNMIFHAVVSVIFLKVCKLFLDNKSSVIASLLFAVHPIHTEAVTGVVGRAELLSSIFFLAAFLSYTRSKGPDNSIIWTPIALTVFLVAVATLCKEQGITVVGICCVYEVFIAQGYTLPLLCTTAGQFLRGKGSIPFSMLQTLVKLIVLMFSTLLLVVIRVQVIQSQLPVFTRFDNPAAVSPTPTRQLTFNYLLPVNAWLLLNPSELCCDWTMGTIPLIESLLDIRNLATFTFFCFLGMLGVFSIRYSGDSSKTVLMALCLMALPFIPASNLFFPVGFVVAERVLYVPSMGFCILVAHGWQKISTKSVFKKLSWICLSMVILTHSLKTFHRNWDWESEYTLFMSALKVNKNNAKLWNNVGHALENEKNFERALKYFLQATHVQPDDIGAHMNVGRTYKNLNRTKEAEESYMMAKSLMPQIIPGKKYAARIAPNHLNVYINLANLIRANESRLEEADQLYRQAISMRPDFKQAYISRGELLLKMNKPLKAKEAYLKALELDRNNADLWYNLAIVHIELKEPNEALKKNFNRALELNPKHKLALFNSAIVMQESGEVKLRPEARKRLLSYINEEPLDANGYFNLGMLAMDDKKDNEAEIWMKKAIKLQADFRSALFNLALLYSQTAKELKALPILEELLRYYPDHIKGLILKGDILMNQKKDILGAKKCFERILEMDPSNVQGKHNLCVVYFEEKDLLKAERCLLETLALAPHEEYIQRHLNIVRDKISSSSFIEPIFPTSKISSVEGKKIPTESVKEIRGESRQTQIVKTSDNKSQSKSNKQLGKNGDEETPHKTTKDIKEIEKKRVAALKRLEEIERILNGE", "experiment": "Binding affinity to Tmtc3 (unknown origin) assessed as fold change in protein upregulation at 200 uM preincubated for 2 hrs followed by pronase addition and measured after 30 mins by coomassie blue staining based SDS-PAGE gel analysis"}, "[25]": {"biological_target": "V-type proton ATPase subunit C 1 (Homo sapiens) (UniProt P21283)", "sequence (P21283 whole entry)": "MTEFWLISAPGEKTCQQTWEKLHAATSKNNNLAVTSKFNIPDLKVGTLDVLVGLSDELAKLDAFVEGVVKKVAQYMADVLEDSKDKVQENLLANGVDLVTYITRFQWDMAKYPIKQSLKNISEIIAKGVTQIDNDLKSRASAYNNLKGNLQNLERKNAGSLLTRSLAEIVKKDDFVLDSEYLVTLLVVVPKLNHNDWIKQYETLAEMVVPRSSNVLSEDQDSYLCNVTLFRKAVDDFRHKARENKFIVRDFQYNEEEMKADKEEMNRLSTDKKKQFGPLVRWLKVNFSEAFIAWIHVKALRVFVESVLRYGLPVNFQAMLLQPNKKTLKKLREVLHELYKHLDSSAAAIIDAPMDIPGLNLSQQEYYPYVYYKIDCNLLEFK", "experiment": "Binding affinity to Atp6v1c1 (unknown origin) assessed as fold change in protein upregulation at 200 uM preincubated for 2 hrs followed by pronase addition and measured after 30 mins by coomassie blue staining based SDS-PAGE gel analysis"}, "[26]": {"system": "RNA polymerase II-associated factor 1 homolog", "experiment": "Binding affinity to Paf1 (unknown origin) at 200 uM preincubated for 2 hrs followed by pronase addition and measured after 30 mins by coomassie blue staining based SDS-PAGE gel analysis", "settings": "Homo sapiens"}}, "note": "Calls of active or inactive are those of the source. No cut-off for these calls is given here."}
{"smiles": "COc1c(O)nc2c(O)cccc2c1OC", "values": [{"measurement": "Activity", "setting": "[1]", "result": "Active"}, {"measurement": "Activity", "setting": "[2]", "result": "Active"}, {"measurement": "Activity", "setting": "[3]", "result": "Dose-Dependent Effect"}, {"measurement": "Activity", "setting": "[4]", "result": "inactive"}, {"measurement": "Activity", "setting": "[5]", "result": "Active"}, {"measurement": "Activity", "setting": "[6]", "result": "Active"}, {"measurement": "Activity", "setting": "[7]", "result": "Active"}, {"measurement": "Activity", "setting": "[8]", "result": "Active"}, {"measurement": "fold change (FC)", "setting": "[9]", "result": 3.04}, {"measurement": "fold change (FC)", "setting": "[10]", "result": 2.01}, {"measurement": "fold change (FC)", "setting": "[11]", "result": 1.8}, {"measurement": "fold change (FC)", "setting": "[12]", "result": 1.76}, {"measurement": "fold change (FC)", "setting": "[13]", "result": 1.67}, {"measurement": "fold change (FC)", "setting": "[14]", "result": 1.57}, {"measurement": "fold change (FC)", "setting": "[15]", "result": 1.48}, {"measurement": "fold change (FC)", "setting": "[16]", "result": 1.36}, {"measurement": "fold change (FC)", "setting": "[17]", "result": 1.34}, {"measurement": "fold change (FC)", "setting": "[18]", "result": 1.34}, {"measurement": "fold change (FC)", "setting": "[19]", "result": 1.32}, {"measurement": "fold change (FC)", "setting": "[20]", "result": 1.29}, {"measurement": "fold change (FC)", "setting": "[21]", "result": 1.26}, {"measurement": "fold change (FC)", "setting": "[22]", "result": 1.24}, {"measurement": "fold change (FC)", "setting": "[23]", "result": 1.23}, {"measurement": "fold change (FC)", "setting": "[24]", "result": 1.22}, {"measurement": "fold change (FC)", "setting": "[25]", "result": 1.21}, {"measurement": "Activity", "setting": "[26]", "result": "Active"}]}
